Laboratory results published in patent publication US20250092065A1, “2-(INDAZOL-5-YL)-6-(PIPERIDIN-4-YL)-1,7-NAPHTHYRIDINE DERIVATIVES AND RELATED COMPOUNDS AS MODULATORS FOR SPLICING NUCLEIC ACIDS AND FOR THE TREATMENT OF PROLIFERATIVE DISEASES” (REMIX THERAPEUTICS INC., priority 2022, published 2025).
pIC50: −log10 of the molar value. Read-outs that look alike come from different tables or passages of the source.

What was measured:
HTT mRNA = assay: RT-qPCR splicing assay, HTT mRNA canonical (CJ) and alternative (AJ) junction; type: cell-based, human; settings: for AC50: HTT alternative junction mRNA, read-out: HTT AJ (increase in AJ mRNA, AC50)
In short: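 A673 or K562 cells treated 24 h at 37 °C with 11-point 3-fold dilutions (top final 10 uM, DMSO ≤0.25%). Lysates analysed by one-step RT-qPCR for canonical (CJ) and alternative-exon (AJ) junctions, normalized to GAPDH, GUSB or PPIA. ΔΔCt vs DMSO, RQ = 2^(−ΔΔCt), expressed as percentage response.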

Target C = assay: RT-qPCR canonical junction panel assay, Target C mRNA; type: cell-based; settings: Table 4, read-out: Target C IC50 (decrease in CJ mRNA levels)
In short: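 A673 or K562 cells treated with compound; CJ mRNA quantified by junction-spanning RT-qPCR probe after cDNA synthesis, normalised to GAPDH, GUSB or PPIA and DMSO (2^−ΔΔCt), scaled to set ΔCt assay window; IC50 from 4-parameter fit of CJ decrease.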

[1] = Homo sapiens, HTT canonical junction mRNA, RT-qPCR, read-out: HTT CJ (decrease in CJ mRNA levels, IC50)
[2] = Homo sapiens, canonical junction qPCR panel, Table 4, read-out: HTT IC50 (decrease in CJ mRNA levels)

| Compound | AC50 (HTT mRNA; Homo sapiens, RT-qPCR) [nM] | pIC50 (HTT mRNA; [1]) | pIC50 (HTT mRNA; [2]) | pIC50 (Target C) | AC50 (HTT mRNA; RT-qPCR) [nM] | pIC50 (HTT mRNA; HTT canonical junction mRNA, RT-qPCR, read-out: HTT CJ (decrease in CJ mRNA levels, IC50)) | pIC50 (HTT mRNA; canonical junction qPCR panel, Table 4, read-out: HTT IC50 (decrease in CJ mRNA levels)) |
| --- | --- | --- | --- | --- | --- | --- | --- |
| Cn1cc2cc(-c3ccc4nc(N5CCC(NC6CC6)C5)ccc4n3)c(O)c(F)c2n1 (racemic) [Compound 287, 5-{6-[3-(cyclopropylamino)pyrrolidin-1-yl]-1,5-naphthyridin-2-yl}-7-fluoro-2-methylindazol-6-ol; trifluoroacetic acid] | < 100 | > 7.00 | > 7.00 | > 7.00 |  |  |  |
| CC(C)N[C@@H]1CCN(c2ccc3nc(-c4cc5cn(C)nc5c(F)c4O)ccc3n2)C1 (single isomer, unassigned) [Compound 285] | < 100 | > 7.00 | > 7.00 | > 7.00 |  |  |  |
| CC(C)N[C@H]1CCN(c2ccc3nc(-c4cc5cn(C)nc5c(F)c4O)ccc3n2)C1 (single isomer, unassigned) [Compound 286] | < 100 | > 7.00 | > 7.00 | > 7.00 |  |  |  |
| Cc1c(O)c(-c2ccc3nc(N4CC[C@@H](NC5CCC5)C4)ccc3n2)cc2cn(C)nc12 (single isomer, unassigned) [Compound 289] | < 100 | > 7.00 | > 7.00 | > 7.00 |  |  |  |
| Cc1c(O)c(-c2ccc3nc(N4CC[C@H](NC5CCC5)C4)ccc3n2)cc2cn(C)nc12 (single isomer, unassigned) [Compound 290] | < 100 | > 7.00 | > 7.00 | > 7.00 |  |  |  |
| Cc1nc2cc(O)c(-c3ccc4nc(N5CCC(NCC6CC6)C5)ccc4n3)cc2o1 (single isomer, unassigned) [Compound 291, 6-(6-{3-[(cyclopropylmethyl)amino]pyrrolidin-1-yl}-1,5-naphthyridin-2-yl)-2-methyl-1,3-benzoxazol-5-ol] | 100 to 1000 | 6.00 to 7.00 | 6.00 to 7.00 | 6.00 to 7.00 |  |  |  |
| Cc1nc2cc(O)c(-c3ccc4nc(N5CCC(NCC6CC6)C5)ccc4n3)cc2o1 (single isomer, unassigned) [Compound 292, 6-(6-{3-[(cyclopropylmethyl)amino]pyrrolidin-1-yl}-1,5-naphthyridin-2-yl)-2-methyl-1,3-benzoxazol-5-ol] |  |  |  | 6.00 to 7.00 | 100 to 1000 | 6.00 to 7.00 | 6.00 to 7.00 |
| Cc1nc2c(C)c(O)c(-c3ccc4nc(N5CC[C@@H](NCC6CC6)C5)ccc4n3)cc2o1 (single isomer, unassigned) [Compound 295] | < 100 | > 7.00 | > 7.00 | 6.00 to 7.00 |  |  |  |
| Cc1nc2c(C)c(O)c(-c3ccc4nc(N5CC[C@H](NCC6CC6)C5)ccc4n3)cc2o1 (single isomer, unassigned) [Compound 296] | < 100 | > 7.00 | > 7.00 | > 7.00 |  |  |  |
| Cn1cc2cc(-c3ccc4nc(N5CC[C@@H](N[C@H]6C[C@@H](F)C6)C5)ccc4n3)c(O)cc2n1 (single isomer, unassigned) [Compound 300] | < 100 | > 7.00 | > 7.00 | > 7.00 |  |  |  |
| Cn1cc2cc(-c3ccc4nc(N5CC[C@@H](NCC6CC6)C5)ccc4n3)c(O)c(F)c2n1 (single isomer, unassigned) [Compound 303] | < 100 | > 7.00 | > 7.00 | > 7.00 |  |  |  |
| Cn1cc2cc(-c3ccc4nc(N5CC[C@H](NCC6CC6)C5)ccc4n3)c(O)c(F)c2n1 (single isomer, unassigned) [Compound 304] | < 100 | > 7.00 | > 7.00 | > 7.00 |  |  |  |
| Cn1cc2cc(-c3ccc4nc(N5CC[C@@H](NC6CC6)C5)ccc4n3)c(O)c(F)c2n1 (single isomer, unassigned) [Compound 305] | < 100 | > 7.00 | > 7.00 | > 7.00 |  |  |  |
| Cn1cc2cc(-c3ccc4nc(N5CC[C@H](NC6CC6)C5)ccc4n3)c(O)c(F)c2n1 (single isomer, unassigned) [Compound 306] | < 100 | > 7.00 | > 7.00 | > 7.00 |  |  |  |
| Cc1nc2c(F)c(O)c(-c3ccc4nc(N5CC[C@@H](NC6CCC6)C5)ccc4n3)cc2o1 (single isomer, unassigned) [Compound 307] | < 100 | > 7.00 | > 7.00 | > 7.00 |  |  |  |
| Cc1nc2c(F)c(O)c(-c3ccc4nc(N5CC[C@H](NC6CCC6)C5)ccc4n3)cc2o1 (single isomer, unassigned) [Compound 308] | < 100 | > 7.00 | > 7.00 | > 7.00 |  |  |  |
| Cc1nc2c(C)c(O)c(-c3ccc4nc(N5CC[C@@H](NC6(C)CC6)C5)ccc4n3)cc2o1 (single isomer, unassigned) [Compound 310] | < 100 | > 7.00 | > 7.00 | > 7.00 |  |  |  |
| Cc1nc2c(C)c(O)c(-c3ccc4nc(N5CC[C@H](NC6(C)CC6)C5)ccc4n3)cc2o1 (single isomer, unassigned) [Compound 311] | < 100 | > 7.00 | > 7.00 | 6.00 to 7.00 |  |  |  |
| Cc1nc2c(C)c(O)c(-c3ccc4nc(N5CC[C@@H](NC(C)C)C5)ccc4n3)cc2o1 (single isomer, unassigned) [Compound 313] | < 100 | > 7.00 | > 7.00 | > 7.00 |  |  |  |
| Cc1nc2c(C)c(O)c(-c3ccc4nc(N5CC[C@H](NC(C)C)C5)ccc4n3)cc2o1 (single isomer, unassigned) [Compound 314] | < 100 | > 7.00 | > 7.00 | > 7.00 |  |  |  |
| Cn1cc2cc(-c3ccc4nc(N5CC[C@@H](NC6CCC6)C5)ccc4n3)c(O)c(F)c2n1 (single isomer, unassigned) [Compound 316] | < 100 | > 7.00 | > 7.00 | > 7.00 |  |  |  |
| Cn1cc2cc(-c3ccc4nc(N5CC[C@H](NC6CCC6)C5)ccc4n3)c(O)c(F)c2n1 (single isomer, unassigned) [Compound 317] | < 100 | > 7.00 | > 7.00 | > 7.00 |  |  |  |
| Cc1c(O)c(-c2ccc3nc(N4CC[C@@H](NC(C)C)C4)ccc3n2)cc2cn(C)nc12 (single isomer, unassigned) [Compound 319] | < 100 | > 7.00 | > 7.00 | > 7.00 |  |  |  |
| Cc1c(O)c(-c2ccc3nc(N4CC[C@H](NCC5CC5)C4)ccc3n2)cc2cn(C)nc12 (single isomer, unassigned) [Compound 321] | < 100 | > 7.00 | > 7.00 | > 7.00 |  |  |  |
| Cc1c(O)c(-c2ccc3nc(N4CC[C@@H](NCC5CC5)C4)ccc3n2)cc2cn(C)nc12 (single isomer, unassigned) [Compound 322] | < 100 | > 7.00 | > 7.00 | > 7.00 |  |  |  |
| Cc1nc2c(F)c(O)c(-c3ccc4nc(N5CC[C@@H](NCC6CC6)C5)ccc4n3)cc2o1 (single isomer, unassigned) [Compound 323] | < 100 | > 7.00 | > 7.00 | > 7.00 |  |  |  |
| Cc1nc2c(F)c(O)c(-c3ccc4nc(N5CC[C@H](NCC6CC6)C5)ccc4n3)cc2o1 (single isomer, unassigned) [Compound 324] | < 100 | > 7.00 | > 7.00 | > 7.00 |  |  |  |
